Measurements reported in ChEMBL document CHEMBL1201862, “PubChem BioAssay data set” (2004).
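96-well plates; 48 h exposure; 5 concentrations. Endpoints by linear interpolation between flanking doses. Not reached: highest tested concentration assigned. GI50 marks 50% less growth.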 Activity calls are given as the source filed them. Rule as the data show it: active = GI50 up to about 1.1 µM and inactive = higher.

Experiments:
Assay in all cases: NCI-60 cell line screen, 48 h
786-0 = tested on: 786-0
A498 = tested on: A498
A549 = tested on: A549
ACHN = tested on: ACHN
CAKI-1 = tested on: CAKI-1
CCRF-CEM = tested on: CCRF-CEM
COLO 205 = tested on: COLO 205
DLD-1 = tested on: DLD-1
DMS-114 = tested on: DMS-114
EKVX = tested on: EKVX
HCC 2998 = tested on: HCC 2998
HCT-116 = tested on: HCT-116
HCT-15 = tested on: HCT-15
HL-60 = tested on: HL-60
HOP-18 = tested on: HOP-18
HOP-62 = tested on: HOP-62
HOP-92 = tested on: HOP-92
HT-29 = tested on: HT-29
IGROV-1 = tested on: IGROV-1
K562 = tested on: K562
KM-20L2 = tested on: KM-20L2
KM12 = tested on: KM12
LOX IMVI = tested on: LOX IMVI
LXFL 529 = tested on: LXFL 529
M14 = tested on: M14
M19-MEL = tested on: M19-MEL
MOLT-4 = tested on: MOLT-4
Malme-3M = tested on: Malme-3M
NCI-H226 = tested on: NCI-H226
NCI-H23 = tested on: NCI-H23
NCI-H460 = tested on: NCI-H460
OVCAR-3 = tested on: OVCAR-3
OVCAR-4 = tested on: OVCAR-4
OVCAR-5 = tested on: OVCAR-5
OVCAR-8 = tested on: OVCAR-8
RPMI-8226 = tested on: RPMI-8226
RXF 393 = tested on: RXF 393
RXF 631 = tested on: RXF 631
SF-268 = tested on: SF-268
SF-295 = tested on: SF-295
SF-539 = tested on: SF-539
SK-MEL-28 = tested on: SK-MEL-28
SK-MEL-5 = tested on: SK-MEL-5
SN12C = tested on: SN12C
SNB-19 = tested on: SNB-19
SNB-75 = tested on: SNB-75
SNB-78 = tested on: SNB-78
SR = tested on: SR
SW-620 = tested on: SW-620
TK-10 = tested on: TK-10
UACC-257 = tested on: UACC-257
UACC-62 = tested on: UACC-62
UO-31 = tested on: UO-31
DMS-273 = tested on: DMS-273
NCI-H522 = tested on: NCI-H522
SK-MEL-2 = tested on: SK-MEL-2
SK-OV-3 = tested on: SK-OV-3
U-251 = tested on: U-251
XF498 = tested on: XF498
MCF7 = tested on: MCF7
NCI/ADR-RES = tested on: NCI/ADR-RES

Measured: GI50

O=C(Nc1ccccc1)N1C(c2ccccc2)=N[C@@H](c2ccccc2)[C@@H]1c1ccccc1
inactive: 786-0 17.6 µM | A498 18.3 µM | A549 21.2 µM | ACHN 15.3 µM | CAKI-1 21.5 µM | CCRF-CEM 22.6 µM | COLO 205 14.6 µM | DLD-1 15.1 µM | DMS-114 14.7 µM | EKVX 43.7 µM | HCC 2998 18.5 µM | HCT-116 17.6 µM | HL-60 19 µM | HOP-18 18.9 µM | HOP-62 20.6 µM | HOP-92 18.3 µM | HT-29 16.6 µM | IGROV-1 22.4 µM | K562 17.7 µM | KM-20L2 18.1 µM | KM12 18.3 µM | LOX IMVI 14.6 µM | LXFL 529 15.6 µM | M14 14.6 µM | M19-MEL 19.5 µM | MOLT-4 19.1 µM | Malme-3M 17.5 µM | NCI-H226 23.3 µM | NCI-H23 23.7 µM | NCI-H460 31.4 µM | OVCAR-3 22.9 µM | OVCAR-4 17.6 µM | OVCAR-5 19.3 µM | OVCAR-8 22.8 µM | RPMI-8226 22.5 µM | RXF 393 15.2 µM | RXF 631 35.2 µM | SF-268 22.3 µM | SF-295 21.9 µM | SF-539 18.6 µM | SK-MEL-28 15.6 µM | SK-MEL-5 13.6 µM | SN12C 21.9 µM | SNB-19 31.6 µM | SNB-75 22.1 µM | SNB-78 33.7 µM | SR 14.8 µM | SW-620 18.8 µM | TK-10 31.3 µM | UACC-257 19 µM | UACC-62 19.9 µM | UO-31 16.1 µM
23.8 µM: HCT-15

CCOP(=O)(OCC)C(C(=O)OC)C(=O)C(=O)Nc1ccc(Cl)cc1Cl (stereo not drawn)
> 100 µM: HCT-15
inactive: 786-0 > 100 µM | A498 > 100 µM | A549 > 100 µM | ACHN > 100 µM | CAKI-1 > 100 µM | CCRF-CEM > 100 µM | COLO 205 > 100 µM | DLD-1 > 100 µM | DMS-114 > 100 µM | DMS-273 > 100 µM | EKVX > 100 µM | HCC 2998 > 100 µM | HCT-116 > 100 µM | HL-60 > 100 µM | HOP-18 24 µM | HOP-62 > 100 µM | HOP-92 > 100 µM | HT-29 > 100 µM | IGROV-1 > 100 µM | K562 > 100 µM | KM-20L2 > 100 µM | KM12 > 100 µM | LOX IMVI > 100 µM | LXFL 529 > 100 µM | M14 > 100 µM | M19-MEL > 100 µM | MOLT-4 > 100 µM | Malme-3M > 100 µM | NCI-H226 > 100 µM | NCI-H23 > 100 µM | NCI-H460 > 100 µM | NCI-H522 > 100 µM | OVCAR-3 > 100 µM | OVCAR-4 > 100 µM | OVCAR-5 > 100 µM | OVCAR-8 > 100 µM | RPMI-8226 > 100 µM | RXF 393 65.3 µM | SF-268 > 100 µM | SF-539 > 100 µM | SK-MEL-28 > 100 µM | SK-MEL-2 > 100 µM | SK-MEL-5 > 100 µM | SK-OV-3 > 100 µM | SN12C > 100 µM | SNB-19 > 100 µM | SNB-75 > 100 µM | SNB-78 > 100 µM | SW-620 > 100 µM | TK-10 > 100 µM | U-251 > 100 µM | UACC-257 > 100 µM | UACC-62 > 100 µM | UO-31 > 100 µM | XF498 3.78 µM

CC(=O)Oc1ccc(C2COc3cc(OC(C)=O)c(OC(C)=O)cc3C2)cc1 (stereo not drawn)
inactive: A498 9.04 µM | A549 22.3 µM | CAKI-1 16.3 µM | CCRF-CEM 7.57 µM | COLO 205 17.9 µM | DLD-1 17.9 µM | DMS-114 4.44 µM | DMS-273 21.9 µM | EKVX 17.3 µM | HCC 2998 21.3 µM | HCT-116 17.4 µM | HL-60 4.11 µM | HOP-18 12.8 µM | HOP-62 25.4 µM | HOP-92 3.88 µM | HT-29 49.3 µM | IGROV-1 12.8 µM | K562 16.3 µM | KM-20L2 37.2 µM | KM12 25 µM | LOX IMVI > 37.1 µM | M19-MEL 12.9 µM | MCF7 19 µM | MOLT-4 18.3 µM | Malme-3M 16.5 µM | NCI-H226 20.6 µM | NCI-H23 16 µM | NCI-H460 17.9 µM | NCI-H522 2.8 µM | NCI/ADR-RES 20.8 µM | OVCAR-3 13.7 µM | OVCAR-4 14.4 µM | OVCAR-5 56.9 µM | OVCAR-8 18 µM | RPMI-8226 14.9 µM | RXF 393 13.6 µM | SF-268 13.7 µM | SF-295 22.2 µM | SF-539 11.7 µM | SK-MEL-28 16.3 µM | SK-MEL-2 14.7 µM | SK-MEL-5 2.95 µM | SK-OV-3 20.7 µM | SN12C 22.4 µM | SNB-19 32.2 µM | SNB-75 6.07 µM | SNB-78 24.3 µM | SW-620 17.4 µM | U-251 13.2 µM | UACC-257 17.7 µM | UACC-62 10.1 µM | UO-31 22.3 µM | XF498 12.2 µM
18.5 µM: HCT-15
